For one data set, the target named is p-glycoprotein (P-gp) (Homo sapiens, UniProt P08183). As to conditions: background statement; cited from earlier work.
The nature of data set [1]: Brain concentration and brain/plasma ratio in mouse after 10 mg/kg p.o. In kind it is in vivo. As to conditions: PO 10 mg/kg.
For another data set, the system named is MDR1 (P-gp). Briefly: in vitro. As to conditions: dog, MDCK-MDR1.
Where [2] appears, read: brain, po, 10 mg/kg, individual animal R1, read-out: Brain Concentration, R1 + 3n.
Setting [3] is: brain, po, 10 mg/kg, individual animal R2, read-out: Brain Concentration, R2 + 3n.
The mark [4] stands for this setting: brain, po, 10 mg/kg, individual animal R3, read-out: Brain Concentration, R3 + 3n.
[5] abbreviates: brain, po, 10 mg/kg, mean, read-out: Brain Concentration, Mean PO.
Where [6] appears, read: plasma, po, 10 mg/kg, individual animal R1, read-out: Plasma Concentration, R1 + 3n.
Setting [7] is: plasma, po, 10 mg/kg, individual animal R2, read-out: Plasma Concentration, R2 + 3n.
Where [8] appears, read: plasma, po, 10 mg/kg, individual animal R3, read-out: Plasma Concentration, R3 + 3n.
Setting [9] is: plasma, po, 10 mg/kg, mean, read-out: Plasma Concentration, Mean PO.

Results on 4 compounds are retold here after patent publication US20220079944A1, “2H-INDAZOLE DERIVATIVES AS THERAPEUTIC AGENTS FOR BRAIN CANCERS AND BRAIN METASTASES” (BETA PHARMA, INC., priority 2019, published 2022).

Structures are written as SMILES. Where two headings read alike, the source gives them in different places.

p-glycoprotein (P-gp), sequence (P08183 whole entry): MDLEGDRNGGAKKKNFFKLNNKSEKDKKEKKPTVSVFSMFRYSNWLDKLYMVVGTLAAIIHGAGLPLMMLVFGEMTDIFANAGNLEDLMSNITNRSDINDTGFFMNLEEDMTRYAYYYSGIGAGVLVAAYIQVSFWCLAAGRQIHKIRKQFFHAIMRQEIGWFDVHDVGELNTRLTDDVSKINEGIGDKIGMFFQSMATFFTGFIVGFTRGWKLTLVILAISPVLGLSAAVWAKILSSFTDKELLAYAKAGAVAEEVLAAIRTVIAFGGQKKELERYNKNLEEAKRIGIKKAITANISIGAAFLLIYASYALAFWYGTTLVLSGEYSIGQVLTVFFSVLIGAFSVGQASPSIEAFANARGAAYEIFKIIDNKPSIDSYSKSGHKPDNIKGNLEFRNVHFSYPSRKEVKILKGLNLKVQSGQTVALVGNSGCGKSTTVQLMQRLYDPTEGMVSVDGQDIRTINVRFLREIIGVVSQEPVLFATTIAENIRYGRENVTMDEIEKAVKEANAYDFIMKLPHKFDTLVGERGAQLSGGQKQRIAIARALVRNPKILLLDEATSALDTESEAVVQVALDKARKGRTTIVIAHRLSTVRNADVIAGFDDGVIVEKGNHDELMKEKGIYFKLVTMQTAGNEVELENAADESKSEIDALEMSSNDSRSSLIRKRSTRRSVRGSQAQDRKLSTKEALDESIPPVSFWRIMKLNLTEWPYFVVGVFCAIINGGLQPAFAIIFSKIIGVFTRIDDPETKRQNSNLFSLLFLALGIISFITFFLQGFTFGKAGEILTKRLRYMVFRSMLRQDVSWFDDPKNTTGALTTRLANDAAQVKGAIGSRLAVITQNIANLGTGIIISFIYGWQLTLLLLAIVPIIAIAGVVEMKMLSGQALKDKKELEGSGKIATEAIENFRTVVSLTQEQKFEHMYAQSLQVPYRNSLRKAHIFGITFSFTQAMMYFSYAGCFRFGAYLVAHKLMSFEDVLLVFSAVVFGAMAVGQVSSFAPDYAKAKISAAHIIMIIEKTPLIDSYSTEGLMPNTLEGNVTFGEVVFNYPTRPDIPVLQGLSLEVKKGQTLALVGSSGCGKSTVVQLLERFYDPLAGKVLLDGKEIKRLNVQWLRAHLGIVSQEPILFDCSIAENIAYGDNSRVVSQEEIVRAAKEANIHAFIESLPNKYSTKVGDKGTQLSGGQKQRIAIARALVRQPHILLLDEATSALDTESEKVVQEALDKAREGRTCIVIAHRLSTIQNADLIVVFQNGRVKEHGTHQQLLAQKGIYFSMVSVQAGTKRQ
Method for MDR1 (P-gp): MDR1-MDCK cell monolayers were grown to confluence on collagen-coated, microporous membranes in 12-well assay plates. […] The permeability assay buffer was Hanks' balanced salt solution (HBSS) containing 10 mM HEPES and 15 mM glucose at a pH of 7.4. The buffer in the receiver chamber also contained 1% bovine serum albumin. The dosing solution concentration was 5 μM of test article in the assay buffer+/−1 μM valspodar. Cells were first pre-incubated for 30 minutes with HBSS containing +/−1 μM valspodar. Cell monolayers were dosed on the apical side (A-to-B) or basolateral side (B-to-A) and incubated at 37° C. with 5% CO2 in a humidified incubator. Samples were taken from the donor and receiver chambers at 120 minutes. Each determination was performed in duplicate. The flux of lucifer yellow was also measured post-experimentally for each monolayer to ensure no damage was inflicted to the cell monolayers during the flux period. All samples were assayed by LC-MS/MS using electrospray ionization.

As to `CCN1CCN(Cc2ccc(Nc3ncc(F)c(-c4cc(F)c5nc(C)n(C(C)C)c5c4)n3)nc2)CC1` [abemaciclib, reference compound], the P-gp substrate entry at p-glycoprotein (P-gp) was “p-glycoprotein (P-gp) substrates”. In data set [1] (brain AUC0-last / plasma AUC0-last, 10 mg/kg), the “AUC0-last Ratio, brain/plasma (B/P) ratio” value was determined as 0.432. The “Brain AUC0-last” value in data set [1] (brain, from mean concentrations) is 4085 ng·h/g. Also, in data set [1] (plasma, from mean concentrations, read-out: Plasma AUC0-last), the AUC(0-t) was found to be 9450 ng·h/mL. Moreover, the concentration at 2 h turned out to be 216 ng/g in data set [1] (setting [2]); 326 ng/g in data set [1] (setting [3]); 302 ng/g in data set [1] (setting [4]); 282 ng/g in data set [1] (setting [5]); 633 ng/mL in data set [1] (setting [6]); 1060 ng/mL in data set [1] (setting [7]). The concentration at 2 h was found to be 821 ng/mL in data set [1] (setting [8]) and 836 ng/mL in data set [1] (setting [9]). Further, the concentration at 4 h was 452 ng/g in data set [1] (setting [2]); 370 ng/g in data set [1] (setting [3]); 469 ng/g in data set [1] (setting [4]); 430 ng/g in data set [1] (setting [5]); 700 ng/mL in data set [1] (setting [6]); 744 ng/mL in data set [1] (setting [7]). Besides, the results for the concentration at 4 h in data set [1] (setting [8]) and in data set [1] (setting [9]) were 963 ng/mL and 802 ng/mL, respectively. In addition, the concentration at 8 h was 421 ng/g in data set [1] (setting [2]); 277 ng/g in data set [1] (setting [3]); 341 ng/g in data set [1] (setting [4]); 347 ng/g in data set [1] (setting [5]); 1020 ng/mL in data set [1] (setting [6]); 707 ng/mL in data set [1] (setting [7]). Also, the figures for the concentration at 8 h in data set [1] (setting [8]) and in data set [1] (setting [9]) were 780 ng/mL and 837 ng/mL, respectively. In addition, the concentration at 24 h in data set [1] (setting [2]) is 6.51 ng/g; in data set [1] (setting [3]) it was 14.8 ng/g; in data set [1] (setting [4]), 10.6 ng/g; in data set [1] (setting [5]), 10.6 ng/g; in data set [1] (setting [6]), 11.5 ng/mL; in data set [1] (setting [7]), 46.7 ng/mL. Besides, the concentration at 24 h in data set [1] (setting [8]) is 16.6 ng/mL; in data set [1] (setting [9]) it was 24.9 ng/mL. The Kp in data set [1] (brain, po, 10 mg/kg, brain AUC0-last / plasma AUC0-last, read-out: AUC0-last Ratio, brain/plasma (B/P) ratio) was 0.43.
Take `CC(=O)c1c(C)c2cnc(Nc3ccc(N4CCNCC4)cn3)nc2n(C2CCCC2)c1=O` [palbociclib]: on p-glycoprotein (P-gp), the P-gp substrate result is “p-glycoprotein (P-gp) substrates”.
By Papp is commonly meant the rate of passage across a membrane or cell layer, normalised by area and donor concentration. Higher therefore signals ready permeation. For `CC(C)NCC(O)COc1cccc2ccccc12` (stereo not drawn) [Propranolol], the apparent permeability coefficient (Papp) in the data set with MDR1 (P-gp) stood at 12.8 ×10⁻⁶ cm/s.
As usually defined, the Papp A→B is the apparent permeability from the apical to the basolateral side of a cell layer. Low values mean slow passage, high ones fast passage. In general, Papp B→A refers to how fast a substance crosses the layer from the basolateral side. The term efflux ratio denotes a quotient of directional permeabilities that is used to spot active efflux. Take `C[C@H]1O[C@@H](O[C@H]2[C@@H](O)C[C@H](O[C@H]3[C@@H](O)C[C@H](O[C@H]4CC[C@@]5(C)[C@H](CC[C@@H]6[C@@H]5C[C@@H](O)[C@]5(C)[C@@H](C7=CC(=O)OC7)CC[C@]65O)C4)O[C@@H]3C)O[C@@H]2C)C[C@H](O)[C@@H]1O` [Digoxin]: in the data set on MDR1 (P-gp), the apical-to-basolateral permeability (Papp A→B) stood at 0.05 ×10⁻⁶ cm/s, the apparent permeability from basolateral to apical (Papp B→A) was determined as 13.9 ×10⁻⁶ cm/s and the efflux ratio was 254.
